Article PMC7023430, “4-Aminobenzoic Acid Derivatives: Converting Folate Precursor to Antimicrobial and Cytotoxic Agents” (Biomolecules, 2019)
Values after ≈ are worked out from the molar mass of the structure shown. Like-named read-outs stand apart in the source and are kept apart here.

Columns and labels:
[1] = test system: Enterococcus faecalis ATCC 29212, CCM 4224; assay: Antibacterial microdilution broth method, E. faecalis; type: cell-based; conditions: Enterococcus faecalis
Candida krusei E28 = assay: Antifungal microdilution broth method, C. krusei; type: cell-based; conditions: Pichia kudriavzevii
Procedure: (§1) The antifungal properties were evaluated against five yeast strains, namely: Candida albicans ATCC 44859, Candida tropicalis 156, Candida krusei […], Candida glabrata 20/I, Trichosporon […] 1188 and three strains of filamentous fungi: Aspergillus fumigatus 231, Lichtheimia corymbifera 272, and Trichophyton interdigitale 445. A microdilution broth method was performed according to EUCAST II, III instructions with slight modifications. Briefly, tested compounds were dissolved in DMSO and diluted in a twofold manner with RPMI-1640 medium with L-glutamine, supplemented with 2% glucose (w/v) and buffered to pH 7.0 with 3 morpholinopropane-1-sulfonic acid (all components were purchased from Sigma-Aldrich, USA). […] Positive controls consisted of test microbe solely, while negative controls consisted of medium and DMSO. Internal quality control was included too. Visual inspection was used for MIC endpoints evaluation. The experiments were conducted in duplicates. For the results to be valid, the difference in MIC determined from two parallel measurements must not be greater than one step on the dilution scale. PABA and triazole antimycotic drug fluconazole were involved as the reference compounds.

[2] = test system: Aspergillus fumigatus 231; assay: Antifungal microdilution broth method, A. fumigatus; type: cell-based
Procedure: as §1

[3] = test system: Lichtheimia corymbifera 272; assay: Antifungal microdilution broth method, L. corymbifera; type: cell-based
Procedure: as §1

[4] = test system: Klebsiella pneumoniae D 11750/08; assay: Antibacterial microdilution broth method, K. pneumoniae; conditions: K. pneumoniae D 11750/08; for MIC KP 24 h: 24 h incubation; for MIC KP 48 h: 48 h incubation
[5] = test system: four Gram-positive and four Gram-negative strains; assay: Antibacterial activity; type: cell-based; conditions: statement over the bacterial panel; time not stated
[6] = test system: Candida albicans ATCC 44859; assay: Antifungal microdilution broth method, C. albicans; type: cell-based
Procedure: as §1

Candida glabrata 20/I = assay: Antifungal microdilution broth method, C. glabrata; type: cell-based; conditions: Nakaseomyces glabratus
Procedure: as §1

[7] = test system: methicillin-resistant Staphylococcus aureus ATCC 43300, CCM 4750 (MRSA); assay: Antibacterial microdilution broth method, MRSA; type: cell-based; conditions: Staphylococcus aureus
Trichosporon asahii 1188 = assay: Antifungal microdilution broth method, T. asahii; type: cell-based
Procedure: as §1

[8] = test system: Staphylococcus epidermidis H 6966/08; assay: Antibacterial microdilution broth method, S. epidermidis; type: cell-based; conditions: Staphylococcus epidermidis, H6966/08, S. epidermidis
[9] = test system: Escherichia coli ATCC 25922, CCM 3954; assay: Antibacterial microdilution broth method, E. coli; type: cell-based; conditions: Escherichia coli
[10] = test system: Mtb. 331/88 and three non-tuberculous mycobacterial strains; assay: Antimycobacterial activity; type: cell-based; conditions: statement over four mycobacterial strains; time not stated
[11] = test system: M. kansasii 6509/96 (clinical isolate); assay: Antimycobacterial micromethod in Šula's medium, M. kansasii 6509/96; type: cell-based; conditions: Mycobacterium kansasii
Candida tropicalis 156 = assay: Antifungal microdilution broth method, C. tropicalis; type: cell-based
Procedure: as §1

[12] = test system: Trichophyton interdigitale 445; assay: Antifungal microdilution broth method, T. interdigitale; type: cell-based
Procedure: as §1

[13] = test system: Mycobacterium avium 330/88; assay: Antimycobacterial micromethod in Šula's medium, M. avium; type: cell-based
[14] = test system: ESBL-positive Klebsiella pneumoniae J 14368/08
[15] = test system: Staphylococcus aureus ATCC 29213, CCM 4223; assay: Antibacterial microdilution broth method, S. aureus; type: cell-based
[16] = test system: Mycobacterium kansasii 235/80; assay: Antimycobacterial micromethod in Šula's medium, M. kansasii 235/80; type: cell-based
eight fungal strains = assay: Antifungal activity; type: cell-based; conditions: statement over the fungal panel; time not stated
Procedure: as §1

[17] = test system: Pseudomonas aeruginosa ATCC 27853, CCM 3955; assay: Antibacterial microdilution broth method, P. aeruginosa; type: cell-based; conditions: Pseudomonas aeruginosa, P. aeruginosa
[18] = test system: Mycobacterium tuberculosis H37Rv (331/88); assay: Antimycobacterial micromethod in Šula's medium, M. tuberculosis; type: cell-based
[19] = 24 h incubation, read-out: MIC EF 24 h
[20] = 48 h incubation, read-out: MIC EF 48 h
[21] = ATCC44859, 24 h, read-out: MIC CA 24 h
[22] = ATCC44859, 48 h, read-out: MIC CA 48 h
[23] = 24 h incubation, read-out: MIC MRSA 24 h
[24] = 48 h incubation, read-out: MIC MRSA 48 h
[25] = 24 h incubation, read-out: MIC SE 24 h
[26] = 48 h incubation, read-out: MIC SE 48 h
[27] = 24 h incubation, read-out: MIC EC 24 h
[28] = 48 h incubation, read-out: MIC EC 48 h
[29] = 168 h, 7 days incubation at 37 °C, read-out: MIC M. kansasii 6509/96 7 d
[30] = 336 h, 14 days incubation at 37 °C, read-out: MIC M. kansasii 6509/96 14 d
[31] = 504 h, 21 days incubation at 37 °C, read-out: MIC M. kansasii 6509/96 21 d
[32] = 330/88, 336 h, 14 days incubation at 37 °C, read-out: MIC M. avium 330/88 14 d
[33] = 330/88, 504 h, 21 days incubation at 37 °C, read-out: MIC M. avium 330/88 21 d
[34] = 24 h incubation, read-out: MIC SA 24 h
[35] = 48 h incubation, read-out: MIC SA 48 h
[36] = 235/80, 168 h, 7 days incubation at 37 °C, read-out: MIC M. kansasii 235/80 7 d
[37] = 235/80, 336 h, 14 days incubation at 37 °C, read-out: MIC M. kansasii 235/80 14 d
[38] = 235/80, 504 h, 21 days incubation at 37 °C, read-out: MIC M. kansasii 235/80 21 d
[39] = 24 h incubation, read-out: MIC PA 24 h
[40] = 48 h incubation, read-out: MIC PA 48 h
[41] = 336 h, 14 days incubation at 37 °C, read-out: MIC Mtb. 331/88 14 d
[42] = 504 h, 21 days incubation at 37 °C, read-out: MIC Mtb. 331/88 21 d

Molecule COc1ccccc1C=Nc1ccc(C(=O)O)cc1 [1s, 4-[(2-Methoxybenzylidene)amino]benzoic acid] has an MIC [1, 19] of over 500 µM, an MIC [1, 20] of over 500 µM and an MIC (Candida krusei E28; 24 h, read-out: MIC CK 24 h) of over 500 µM. It also gave an MIC (Candida krusei E28; 48 h, read-out: MIC CK 48 h) of over 500 µM, an MIC ([2]; 24 h, read-out: MIC AF 24 h) of over 500 µM and an MIC ([2]; 48 h, read-out: MIC AF 48 h) of over 500 µM. The MIC ([3]; 24 h, read-out: MIC LC 24 h) was over 500 µM, the MIC ([3]; 48 h, read-out: MIC LC 48 h) was over 500 µM and the “MIC KP 24 h” value [4] was over 500 µM. For the same molecule, the “MIC KP 48 h” value [4] was over 500 µM, the “MIC, antibacterial activity” value [5] was “avoided any antibacterial action” and the MIC [6, 21] was over 500 µM. The MIC [6, 22] was over 500 µM, the MIC (Candida glabrata 20/I; 24 h, read-out: MIC CG 24 h) was over 500 µM and the MIC (Candida glabrata 20/I; 48 h, read-out: MIC CG 48 h) was over 500 µM. The MIC [7, 23] was over 500 µM, the MIC [7, 24] was over 500 µM and the MIC (Trichosporon asahii 1188; 24 h, read-out: MIC TA 24 h) was over 500 µM. It also gave an MIC (Trichosporon asahii 1188; 48 h, read-out: MIC TA 48 h) of over 500 µM, an MIC [8, 25] of over 500 µM and an MIC [8, 26] of over 500 µM. The MIC [9, 27] was over 500 µM, the MIC [9, 28] was over 500 µM and the “MIC, antimycobacterial activity” value [10] was “only negligible antimycobacterial activity”. For the same molecule, the MIC [11, 29] was 1000 µM (≈ 255 µg/mL), the MIC [11, 30] was 1000 µM (≈ 255 µg/mL) and the MIC [11, 31] was 1000 µM (≈ 255 µg/mL). The MIC (Candida tropicalis 156; 24 h, read-out: MIC CT 24 h) was over 500 µM, the MIC (Candida tropicalis 156; 48 h, read-out: MIC CT 48 h) was over 500 µM and the MIC ([12]; 72 h, read-out: MIC TI 72 h) was over 500 µM. It also gave an MIC ([12]; 120 h, read-out: MIC TI 120 h) of over 500 µM, an MIC [13, 32] of over 1000 µM and an MIC [13, 33] of over 1000 µM. The “MIC KP-E 24 h” value [14] was over 500 µM, the “MIC KP-E 48 h” value [14] was over 500 µM and the MIC [15, 34] was over 500 µM. The MIC [15, 35] was over 500 µM, the MIC [16, 36] was 1000 µM (≈ 255 µg/mL) and the MIC [16, 37] was 1000 µM (≈ 255 µg/mL). The MIC [16, 38] was over 1000 µM, the “MIC, antifungal activity” value (eight fungal strains) was “no antimycotic potency” and the MIC [17, 39] was over 500 µM. The MIC [17, 40] was over 500 µM, the MIC [18, 41] was 1000 µM (≈ 255 µg/mL) and the MIC [18, 42] was 1000 µM (≈ 255 µg/mL).

Molecule O=C(O)c1ccc(N=Cc2ccccc2O)cc1 [1a, 4-[(2-Hydroxybenzylidene)amino]benzoic acid] has an MIC [1, 19] of over 500 µM, an MIC [1, 20] of over 500 µM and an MIC (Candida krusei E28; 24 h, read-out: MIC CK 24 h) of over 500 µM. The MIC (Candida krusei E28; 48 h, read-out: MIC CK 48 h) was over 500 µM, the MIC ([2]; 24 h, read-out: MIC AF 24 h) was over 500 µM and the MIC ([2]; 48 h, read-out: MIC AF 48 h) was over 500 µM. For the same molecule, the MIC ([3]; 24 h, read-out: MIC LC 24 h) was over 500 µM, the MIC ([3]; 48 h, read-out: MIC LC 48 h) was over 500 µM and the “MIC KP 24 h” value [4] was over 500 µM. The “MIC KP 48 h” value [4] was over 500 µM, the “MIC, antibacterial activity” value [5] was “avoided any antibacterial action” and the MIC [6, 21] was over 500 µM. For the same molecule, the MIC [6, 22] was over 500 µM, the MIC (Candida glabrata 20/I; 24 h, read-out: MIC CG 24 h) was over 500 µM and the MIC (Candida glabrata 20/I; 48 h, read-out: MIC CG 48 h) was over 500 µM. It also gave an MIC [7, 23] of over 500 µM, an MIC [7, 24] of over 500 µM and an MIC (Trichosporon asahii 1188; 24 h, read-out: MIC TA 24 h) of over 500 µM. It also gave an MIC (Trichosporon asahii 1188; 48 h, read-out: MIC TA 48 h) of over 500 µM, an MIC [8, 25] of over 500 µM and an MIC [8, 26] of over 500 µM. The MIC [9, 27] was over 500 µM, the MIC [9, 28] was over 500 µM and the “MIC, antimycobacterial activity” value [10] was “only negligible antimycobacterial activity”. For the same molecule, the MIC [11, 29] was 1000 µM (≈ 241 µg/mL), the MIC [11, 30] was 1000 µM (≈ 241 µg/mL) and the MIC [11, 31] was 1000 µM (≈ 241 µg/mL). For the same molecule, the MIC (Candida tropicalis 156; 24 h, read-out: MIC CT 24 h) was over 500 µM, the MIC (Candida tropicalis 156; 48 h, read-out: MIC CT 48 h) was over 500 µM and the MIC ([12]; 72 h, read-out: MIC TI 72 h) was over 500 µM. The MIC ([12]; 120 h, read-out: MIC TI 120 h) was over 500 µM, the MIC [13, 32] was over 1000 µM and the MIC [13, 33] was over 1000 µM. For the same molecule, the “MIC KP-E 24 h” value [14] was over 500 µM, the “MIC KP-E 48 h” value [14] was over 500 µM and the MIC [15, 34] was over 500 µM. The MIC [15, 35] was over 500 µM, the MIC [16, 36] was 1000 µM (≈ 241 µg/mL) and the MIC [16, 37] was over 1000 µM. The MIC [16, 38] was over 1000 µM, the “MIC, antifungal activity” value (eight fungal strains) was “no antimycotic potency” and the MIC [17, 39] was over 500 µM. For the same molecule, the MIC [17, 40] was over 500 µM, the MIC [18, 41] was over 1000 µM and the MIC [18, 42] was over 1000 µM.
